According to the NIST ThermoML archive (doi:10.1021/je0301794):

Key:
[1] = xn = mol fraction of the nth substance listed; conditions: 101.3 kPa, Liquid
[2] = excess molar enthalpy (molar enthalpy of mixing); xn = mol fraction of the nth substance listed; conditions: 318.15 K, 101.3 kPa, Liquid

CCCCCCCCCC [decane] + COC(=O)OC
[1]
Conditions | mass density [kg/m3]
298.15 K, x2 = 0 | 726.2
298.15 K, x2 = 0.0043 | 726.8
298.15 K, x2 = 0.0235 | 729.1
298.15 K, x2 = 0.0888 | 737.6
298.15 K, x2 = 0.1363 | 744.6
298.15 K, x2 = 0.1922 | 753.4
298.15 K, x2 = 0.2402 | 761.6
298.15 K, x2 = 0.3348 | 779.8
298.15 K, x2 = 0.4201 | 798.8
298.15 K, x2 = 0.4876 | 816
298.15 K, x2 = 0.5607 | 837.1
298.15 K, x2 = 0.6214 | 856.8
298.15 K, x2 = 0.6754 | 876.5
298.15 K, x2 = 0.7219 | 895.2
298.15 K, x2 = 0.7702 | 916.6
298.15 K, x2 = 0.8104 | 936.3
298.15 K, x2 = 0.8421 | 953.4
298.15 K, x2 = 0.8849 | 978.5
298.15 K, x2 = 0.9135 | 997
298.15 K, x2 = 0.9424 | 1017.3
298.15 K, x2 = 0.9709 | 1039
303.15 K, x2 = 0 | 722.3
303.15 K, x2 = 0.0489 | 728.4
303.15 K, x2 = 0.0996 | 735.2
303.15 K, x2 = 0.1998 | 750.3
303.15 K, x2 = 0.299 | 768.1
303.15 K, x2 = 0.3991 | 789.2
303.15 K, x2 = 0.4992 | 814.3
303.15 K, x2 = 0.6023 | 845.3
303.15 K, x2 = 0.7013 | 881.5
303.15 K, x2 = 0.8008 | 925.9
303.15 K, x2 = 0.9012 | 982.6
303.15 K, x2 = 0.9505 | 1016.6
313.15 K, x2 = 0 | 714.7
313.15 K, x2 = 0.0489 | 720.6
313.15 K, x2 = 0.0996 | 727.2
313.15 K, x2 = 0.1998 | 742
313.15 K, x2 = 0.299 | 759.4
313.15 K, x2 = 0.3991 | 780.1
313.15 K, x2 = 0.4992 | 804.7
313.15 K, x2 = 0.6023 | 835.2
313.15 K, x2 = 0.7013 | 870.6
313.15 K, x2 = 0.8008 | 914.4
313.15 K, x2 = 0.9012 | 970.3
313.15 K, x2 = 0.9505 | 1003.6
318.15 K, x2 = 0 | 710.9
318.15 K, x2 = 0.0902 | 722.1
318.15 K, x2 = 0.1142 | 725.4
318.15 K, x2 = 0.1922 | 736.9
318.15 K, x2 = 0.3283 | 760.8
318.15 K, x2 = 0.4184 | 780
318.15 K, x2 = 0.4855 | 796.3
318.15 K, x2 = 0.4962 | 799.1
318.15 K, x2 = 0.5666 | 818.8
318.15 K, x2 = 0.6142 | 833.9
318.15 K, x2 = 0.6732 | 854.3
318.15 K, x2 = 0.728 | 875.8
318.15 K, x2 = 0.7735 | 895.6
318.15 K, x2 = 0.8087 | 912.6
318.15 K, x2 = 0.8503 | 934.4
318.15 K, x2 = 0.8944 | 960.1
318.15 K, x2 = 0.9252 | 980
318.15 K, x2 = 0.9473 | 995.6
318.15 K, x2 = 0.9768 | 1017.9

[2]
Conditions | excess molar enthalpy [kcal/mol]
x2 = 0 | 0
x2 = 0.0948 | 0.19
x2 = 0.1964 | 0.341
x2 = 0.29 | 0.453
x2 = 0.3757 | 0.524
x2 = 0.4516 | 0.561
x2 = 0.5089 | 0.572
x2 = 0.5556 | 0.573
x2 = 0.5944 | 0.568
x2 = 0.6291 | 0.56
x2 = 0.6358 | 0.556
x2 = 0.6748 | 0.539
x2 = 0.7141 | 0.518
x2 = 0.7558 | 0.484
x2 = 0.7914 | 0.445
x2 = 0.8294 | 0.393
x2 = 0.8725 | 0.33
x2 = 0.9085 | 0.255
x2 = 0.9429 | 0.174
x2 = 0.9788 | 0.0741

COC(=O)OC [dimethyl carbonate] + CCCCCC
[1]
Conditions | mass density [kg/m3]
293.15 K, x1 = 0.0722 | 677.3
293.15 K, x1 = 0.1448 | 696.6
293.15 K, x1 = 0.2286 | 720.8
293.15 K, x1 = 0.3026 | 744
293.15 K, x1 = 0.4102 | 780.8
293.15 K, x1 = 0.5062 | 817
293.15 K, x1 = 0.6026 | 857.1
293.15 K, x1 = 0.7052 | 904
293.15 K, x1 = 0.7974 | 950.5
293.15 K, x1 = 0.901 | 1008.3
293.15 K, x1 = 0.9506 | 1038.5
293.15 K, x1 = 1 | 1070
298.15 K, x1 = 0.082 | 674.9
298.15 K, x1 = 0.1269 | 686.7
298.15 K, x1 = 0.2131 | 710.9
298.15 K, x1 = 0.3197 | 744.1
298.15 K, x1 = 0.3787 | 764
298.15 K, x1 = 0.4712 | 797.6
298.15 K, x1 = 0.5121 | 813.4
298.15 K, x1 = 0.6067 | 852.6
298.15 K, x1 = 0.6987 | 894.5
298.15 K, x1 = 0.842 | 967.9
298.15 K, x1 = 0.9248 | 1015.9
298.15 K, x1 = 0.9615 | 1038.7
298.15 K, x1 = 1 | 1063.5
303.15 K, x1 = 0.0468 | 661.4
303.15 K, x1 = 0.0991 | 674.5
303.15 K, x1 = 0.1951 | 700.4
303.15 K, x1 = 0.295 | 730.4
303.15 K, x1 = 0.3832 | 759.5
303.15 K, x1 = 0.4865 | 797.1
303.15 K, x1 = 0.5899 | 838.7
303.15 K, x1 = 0.696 | 886.3
303.15 K, x1 = 0.7947 | 935.5
303.15 K, x1 = 0.8939 | 990.5
303.15 K, x1 = 0.9436 | 1020.3
303.15 K, x1 = 1 | 1056.5
313.15 K, x1 = 0.0495 | 652.7
313.15 K, x1 = 0.1 | 665.2
313.15 K, x1 = 0.2092 | 694.5
313.15 K, x1 = 0.3093 | 724.6
313.15 K, x1 = 0.4043 | 756.1
313.15 K, x1 = 0.4941 | 788.8
313.15 K, x1 = 0.6052 | 833.6
313.15 K, x1 = 0.7063 | 879.2
313.15 K, x1 = 0.8046 | 928.6
313.15 K, x1 = 0.9014 | 982.5
313.15 K, x1 = 0.9497 | 1011.6
313.15 K, x1 = 1 | 1043.4
318.15 K, x1 = 0.0773 | 654.9
318.15 K, x1 = 0.1163 | 664.6
318.15 K, x1 = 0.1621 | 676.6
318.15 K, x1 = 0.2689 | 706.8
318.15 K, x1 = 0.3288 | 725.3
318.15 K, x1 = 0.4097 | 752.4
318.15 K, x1 = 0.4753 | 776
318.15 K, x1 = 0.5256 | 795.2
318.15 K, x1 = 0.5452 | 803.1
318.15 K, x1 = 0.5879 | 820.6
318.15 K, x1 = 0.6449 | 845.2
318.15 K, x1 = 0.6976 | 869.3
318.15 K, x1 = 0.7615 | 900.4
318.15 K, x1 = 0.8039 | 922.2
318.15 K, x1 = 0.8422 | 942.9
318.15 K, x1 = 0.8808 | 964.3
318.15 K, x1 = 0.9311 | 993.8
318.15 K, x1 = 0.9657 | 1015.1
318.15 K, x1 = 1 | 1036.9

[2]
Conditions | excess molar enthalpy [kcal/mol]
x1 = 0.088 | 0.171
x1 = 0.1762 | 0.292
x1 = 0.2418 | 0.369
x1 = 0.3259 | 0.432
x1 = 0.4027 | 0.472
x1 = 0.4703 | 0.49
x1 = 0.5162 | 0.495
x1 = 0.5554 | 0.492
x1 = 0.6261 | 0.477
x1 = 0.6776 | 0.455
x1 = 0.7263 | 0.421
x1 = 0.7728 | 0.381
x1 = 0.8189 | 0.323
x1 = 0.866 | 0.262
x1 = 0.9005 | 0.204
x1 = 0.9393 | 0.13
x1 = 0.9822 | 0.0471
x1 = 1 | 0
